Literature values, collected in patent US20090104287A1, “Protocol for AIDS prevention and treatment by nutritional methods” (priority 2002, published 2009).

Tests used:
[1] = tested on: HIV seropositive patients; details: supplementation
HIV-infected patients = details: supplementation (usually given as N-acetyl cysteine)

Compound: CC(=O)N[C@@H](CS)C(=O)O [N-acetyl cysteine]
- replenishing whole blood and T cell glutathione [1]: often seems effective in replenishing both whole blood and T cell glutathione

Compound: N[C@@H](CS)C(=O)O [cysteine]
- glutathione in CD4 T cells (HIV-infected patients): replenishes low glutathione in CD4 T cells
